Numbering of substitutions follows the chain as printed.
Tests used:
human P2Y12 = target: T1, human P2Y12 (Homo sapiens, UniProt Q9H244); assay: Intracellular Ca2+ mobilization, HEK293 co-transfected with P2Y12 wild-type and Gαqi5; format: cell-based; conditions: calcium mobilization, HEK293, P2Y12 WT + Gαqi5, mean ± SEM
T1 construct: HA (N); expressed in transfected cells; host or cells: HEK293
Protocol: (§1) Intracellular Ca^2+ assays were carried out as follows.

P2Y12-D84A = target: T2, P2Y12-D84A (Homo sapiens, UniProt Q9H244, D84A); assay: Intracellular Ca2+ mobilization, HEK293 expressing P2Y12 D84A mutant; format: cell-based; conditions: calcium mobilization, mean ± SEM
T2 construct: HA (N); expressed in transfected cells; host or cells: HEK293
Protocol: as §1

P2Y12-K80A = target: T3, P2Y12-K80A (Homo sapiens, UniProt Q9H244, K80A); assay: Intracellular Ca2+ mobilization, HEK293 expressing P2Y12 K80A mutant; format: cell-based; conditions: calcium mobilization, mean ± SEM
T3 construct: HA (N); expressed in transfected cells; host or cells: HEK293
Protocol: as §1

P2Y12-K280A = target: T4, P2Y12-K280A (Homo sapiens, UniProt Q9H244, K280A); assay: Intracellular Ca2+ mobilization, HEK293 expressing P2Y12 K280A mutant; format: cell-based; conditions: calcium mobilization, mean ± SEM
T4 construct: HA (N); expressed in transfected cells; host or cells: HEK293
Protocol: as §1

P2Y12-F277A = target: T5, P2Y12-F277A (Homo sapiens, UniProt Q9H244, F277A); assay: Intracellular Ca2+ mobilization, HEK293 expressing P2Y12 F277A mutant; format: cell-based; conditions: calcium mobilization, mean ± SEM
T5 construct: HA (N); expressed in transfected cells; host or cells: HEK293
Protocol: as §1

P2Y12-E281A = target: T6, P2Y12-E281A (Homo sapiens, UniProt Q9H244, E281A); assay: Intracellular Ca2+ mobilization, HEK293 expressing P2Y12 E281A mutant; format: cell-based; conditions: calcium mobilization, mean ± SEM
T6 construct: HA (N); expressed in transfected cells; host or cells: HEK293
Protocol: as §1

human P2Y14 = target: T7, human P2Y14 (Homo sapiens, UniProt Q15391); assay: Intracellular Ca2+ mobilization, HEK293 co-transfected with P2Y14 wild-type and Gαqi5; format: cell-based; conditions: calcium mobilization, HEK293, P2Y14 WT + Gαqi5, mean ± SEM
T7 construct: HA (N); expressed in transfected cells; host or cells: HEK293
T7 sequence (Q15391 1-338): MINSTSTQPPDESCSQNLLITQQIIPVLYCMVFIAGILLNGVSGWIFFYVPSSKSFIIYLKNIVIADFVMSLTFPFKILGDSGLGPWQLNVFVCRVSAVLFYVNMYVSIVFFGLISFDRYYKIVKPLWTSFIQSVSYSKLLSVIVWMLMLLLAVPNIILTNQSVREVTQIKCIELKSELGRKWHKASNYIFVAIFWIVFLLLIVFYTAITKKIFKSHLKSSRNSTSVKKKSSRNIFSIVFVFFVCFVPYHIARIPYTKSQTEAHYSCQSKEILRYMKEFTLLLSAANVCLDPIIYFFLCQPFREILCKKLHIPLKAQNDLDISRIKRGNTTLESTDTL

P2Y14-E278A = target: T8, P2Y14-E278A (Homo sapiens, UniProt Q15391, E278A); assay: Intracellular Ca2+ mobilization, HEK293 expressing P2Y14 E278A mutant; format: cell-based; conditions: calcium mobilization, mean ± SEM
T8 construct: HA (N); expressed in transfected cells; host or cells: HEK293
T8 sequence (Q15391 1-338 E278A): T7 sequence (Q15391 1-338) with E278A

P2Y14-D81A = target: T9, P2Y14-D81A (Homo sapiens, UniProt Q15391, D81A); assay: Intracellular Ca2+ mobilization, HEK293 expressing P2Y14 D81A mutant; format: cell-based; conditions: calcium mobilization, mean ± SEM
T9 construct: HA (N); expressed in transfected cells; host or cells: HEK293
T9 sequence (Q15391 1-338 D81A): T7 sequence (Q15391 1-338) with D81A

P2Y14-K77A = target: T10, P2Y14-K77A (Homo sapiens, UniProt Q15391, K77A); assay: Intracellular Ca2+ mobilization, HEK293 expressing P2Y14 K77A mutant; format: cell-based; conditions: calcium mobilization, mean ± SEM
T10 construct: HA (N); expressed in transfected cells; host or cells: HEK293
T10 sequence (Q15391 1-338 K77A): T7 sequence (Q15391 1-338) with K77A

P2Y14-K277A = target: T11, P2Y14-K277A (Homo sapiens, UniProt Q15391, K277A); assay: cell-based
T11 sequence (Q15391 1-338 K277A): T7 sequence (Q15391 1-338) with K277A

T1 sequence (Q9H244 whole entry): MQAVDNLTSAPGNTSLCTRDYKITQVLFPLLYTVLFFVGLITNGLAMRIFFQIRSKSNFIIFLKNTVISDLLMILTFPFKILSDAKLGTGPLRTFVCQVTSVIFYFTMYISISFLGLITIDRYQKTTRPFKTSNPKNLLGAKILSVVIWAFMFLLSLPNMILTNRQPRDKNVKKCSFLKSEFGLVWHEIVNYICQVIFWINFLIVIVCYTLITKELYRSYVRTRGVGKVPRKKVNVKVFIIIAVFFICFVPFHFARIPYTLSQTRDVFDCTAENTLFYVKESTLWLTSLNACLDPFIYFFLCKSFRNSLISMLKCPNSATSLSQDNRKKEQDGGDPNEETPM
T6 sequence (Q9H244 whole entry E281A): as the sequence (Q9H244 whole entry) above, with E281A counted along it
T4 sequence (Q9H244 whole entry K280A): as the sequence (Q9H244 whole entry) above, with K280A counted along it
T2 sequence (Q9H244 whole entry D84A): as the sequence (Q9H244 whole entry) above, with D84A counted along it
T3 sequence (Q9H244 whole entry K80A): as the sequence (Q9H244 whole entry) above, with K80A counted along it
T5 sequence (Q9H244 whole entry F277A): as the sequence (Q9H244 whole entry) above, with F277A counted along it

SMILES	EC50 (human P2Y12)	EC50 (P2Y12-D84A)	EC50 (P2Y12-K80A)	EC50 (P2Y12-K280A)	EC50 (P2Y12-F277A)	EC50 (P2Y12-E281A)	EC50 (human P2Y14)	EC50 (P2Y14-E278A)	EC50 (P2Y14-D81A)	EC50 (P2Y14-K77A)	EC50 (P2Y14-K277A)
Nc1ncnc2c1ncn2C1OC(COP(=O)(O)OP(=O)(O)OC2OC(CO)C(O)C(O)C2O)C(O)C1O (stereo not shown) [ADP-Glc, ADP-glucose]	3.4 ± 0.4 µM	29.3 ± 1.2 µM	96.9 ± 14.4 µM	41.8 ± 3 µM	15.4 ± 1.1 µM	75.3 ± 10.1 µM					
O=C(O)C1OC(OP(=O)(O)OP(=O)(O)OCC2OC(n3ccc(=O)[nH]c3=O)C(O)C2O)C(O)C(O)C1O (stereo not shown) [UDP-GlcA, UDP-glucuronic acid]							0.0599 ± 0.0048 µM	0.0382 ± 0.0022 µM	0.172 ± 0.0098 µM	> 3 µM	> 3 µM
CC(=O)N[C@H]1[C@@H](OP(=O)(O)OP(=O)(O)OC[C@H]2O[C@@H](n3ccc(=O)[nH]c3=O)[C@H](O)[C@@H]2O)O[C@H](CO)[C@@H](O)[C@@H]1O [UDP-GlcNAc, UDP-N-acetylglucosamine]							0.184 ± 0.0118 µM	0.624 ± 0.102 µM	3 ± 0.174 µM	> 3 µM	0.549 ± 0.0744 µM

Results, then the molecule that gave them:

EC50 (human P2Y12)	EC50 (P2Y12-D84A)	EC50 (P2Y12-K80A)	EC50 (P2Y12-K280A)	EC50 (P2Y12-F277A)	EC50 (P2Y12-E281A)	EC50 (human P2Y14)	EC50 (P2Y14-E278A)	EC50 (P2Y14-D81A)	EC50 (P2Y14-K77A)	EC50 (P2Y14-K277A)	SMILES
1.3 ± 0.1 µM	9.4 ± 0.3 µM	35.2 ± 0.5 µM	18.1 ± 3.3 µM	5 ± 0.4 µM	28.2 ± 4.1 µM						Nc1ncnc2c1ncn2C1OC(COP(=O)(O)OP(=O)(O)OC2OC(C(=O)O)C(O)C(O)C2O)C(O)C1O (stereo not shown) [ADP-GlcA, ADP-glucuronic acid]
12.3 ± 0.9 µM	> 150 µM	> 150 µM	> 150 µM	128 ± 17.6 µM	> 150 µM						Nc1ncnc2c1ncn2C1OC(COP(=O)(O)OP(=O)(O)OC2OC(CO)C(O)C(O)C2O)C(O)C1O (stereo not shown) [ADP-Man, ADP-mannose]

Source: publication PMC10642967, “Identification of a carbohydrate recognition motif of purinergic receptors” (eLife, 2023)
